Measurements taken from patent US20170368134A1, “PROTEASOME INHIBITORS FOR TREATING A DISORDER RELATED TO AN ACCUMULATION OF NON-DEGRADED ABNORMAL PROTEIN OR A CANCER” (UNIVERSITÉ D'AIX-MARSEILLE, priority 2015, published 2017).
Square brackets hold non-standard residues; d marks the D form. Peptide text beside a SMILES is read from it. * marks the point of attachment. Nva = CCC[C@H](N)C(=O)O; Cbz = O=C(OCc1ccccc1)*; CH2F = FC*

What was measured:
[1] = test system: progerin; test: Western blot of progerin levels in HGPS fibroblasts; type: cell-based, human; conditions: HGPS fibroblasts; for effect on MG132-induced progerin clearance (co-treatment with MG132): 48 h, added together with MG132; for progerin clearance / suppression of progerin accumulation compared with MG132: 10 μM, 48 h (FIG. 1C); for progerin expression levels, inhibitor alone: alone at high doses
Method: HGPS fibroblasts (AG01972: person, AG11498: person) were obtained from the Coriell Cell Repository. Cells were cultured in Dulbecco's modified Eagle's medium (Life Technologies) supplemented with 15% fetal bovine serum (Life Technologies), 2 mM L-glutamine (Life Technologies) and 1× penicillin-streptomycin (Life Technologies) at 37° C. in a humidified atmosphere containing 5% CO2. […]
(§1) Total fibroblast proteins were extracted in 200 μL of NP40 Cell Lysis buffer (Invitrogen, Carlsbad, Calif.) containing Protease and Phosphatase Inhibitor Cocktail (Thermo Scientific). Alternatively, cells were lysed with urea (8 M urea, 5 mM dithiothreitol, 150 mM NaCl, 50 mM Tris-Cl pH 7.5, protease and phosphatase Inhibitor Cocktail (Thermo Scientific)). Cells were sonicated twice (30 sec each), incubated at 4° C. for 30 minutes and then centrifuged at 10,000 g for 10 minutes. Protein concentration was evaluated with the bicinchoninic acid technique (Pierce BCA Protein Assay Kit), absorbance at 562 nm is measured using nanodrop 1000 (Thermo Fisher Scientific Inc.) Equal amounts of proteins (40 μg) were loaded onto 10% Tis-Glycine gel (Criterion™ XT precast gel) using XT Tricine running Buffer (Biorad, USA). After electrophoresis, gels were electro transferred onto nitrocellulose membranes or Immobilon-FL polyvinylidene fluoride membranes (Millipore), blocked in Odyssey Blocking Buffer diluted 1:1 in PBS for 1 hour at room temperature, and incubated overnight at 4° C. or 2 hours at room temperature with various primary antibodies. Blots were washed with TBS-T buffer [20 mM tris (pH 7.4), 150 mM NaCl, and 0.05% Tween 20] and incubated with 1:10,000 IR-Dye 800-conjugated secondary donkey anti-goat or IR-Dye 700-conjugated secondary anti-mouse antibodies (LI-COR Biosciences) in Odyssey blocking buffer (LI-COR Biosciences). For IR-Dye 800 and IR-Dye 700 detection, an Odyssey Infrared Imaging System (LI-COR Biosciences) was used. GAPDH, α-tubulin or β-actin were used as a total cellular protein loading control.

[2] = test system: SRSF-1; test: Western blot of SRSF-1 in HGPS fibroblasts; type: cell-based, human; conditions: for SRSF-1 levels, autophagy inhibitor alone: HGPS fibroblasts, chloroquine 50 μM, bafilomycin A1 100 nM
Method: as §1

[3] = target: T1, proteasome (Homo sapiens, UniProt P28072+P28074+Q99436); test: Proteasome-Glo cell-based proteasome activities (chymotrypsin-like, trypsin-like, caspase-like) in HGPS cells; conditions: HGPS cells treated with the autophagy inhibitor
T1 construct: The proteasome activities were determined in HGPS and control cells; endogenous in cells; host or cells: HGPS fibroblasts (AG01972, AG11498, 5968)
T1 sequence (P28074 60-263): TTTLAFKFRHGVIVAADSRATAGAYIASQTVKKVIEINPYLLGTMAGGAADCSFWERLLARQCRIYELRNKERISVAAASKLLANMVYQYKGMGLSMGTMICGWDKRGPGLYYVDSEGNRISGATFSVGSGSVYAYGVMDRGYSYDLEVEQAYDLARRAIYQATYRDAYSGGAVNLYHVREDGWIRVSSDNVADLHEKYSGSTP
T1 sequence (Q99436 44-277): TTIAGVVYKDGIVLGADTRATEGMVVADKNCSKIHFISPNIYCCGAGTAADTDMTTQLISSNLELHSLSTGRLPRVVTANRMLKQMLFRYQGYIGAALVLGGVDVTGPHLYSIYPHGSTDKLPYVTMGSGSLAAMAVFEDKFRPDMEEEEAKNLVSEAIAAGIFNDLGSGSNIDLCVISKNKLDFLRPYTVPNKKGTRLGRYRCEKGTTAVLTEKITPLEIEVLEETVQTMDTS
T1 sequence (P28072 1-239): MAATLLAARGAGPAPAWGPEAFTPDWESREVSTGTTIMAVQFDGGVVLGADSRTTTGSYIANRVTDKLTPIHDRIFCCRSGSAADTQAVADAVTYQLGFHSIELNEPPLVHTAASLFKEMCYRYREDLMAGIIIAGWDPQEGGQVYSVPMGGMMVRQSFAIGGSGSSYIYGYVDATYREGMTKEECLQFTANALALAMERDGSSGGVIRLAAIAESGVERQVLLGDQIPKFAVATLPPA
Method: The proteasome activities were determined in HGPS and control cells by using the Proteasome-Glo™ 3-Substrate Cell-Based Assay System (Promega) that allows to measure the chymotrypsin-like, trypsin-like or caspase-like protease activity associated with the proteasome complex in cultured cells. The Proteasome-Glo™ Cell-Based Reagents each contain a specific luminogenic proteasome substrate. These peptide substrates are Suc-LLVY amino luciferin (Succinyl-leucine-leucine-valine-tyro sine-amino luciferin), Z-LRR-amino luciferin (Z-leucine-arginine-arginine-aminoluciferin) and Z-nLPnLD-amino luciferin (Z-norleucine-proline-norleucine-aspartate-amino luciferin) for the chymotrypsin-like, trypsin-like and caspase-like activities, respectively. Cells (10,000 cells/well) were cultured in 100 μl/well in a 96-well plate at 37° C., 5% CO2. The plate was allowed to equilibrate to 22° C. before 100 μl/well of substrate and luciferin detection reagent was added. The contents of the wells were mixed at 700 rpm using a plate shaker for 2 minutes and incubated at room temperature for 10 minutes. Following cleavage by the proteasome, the substrate for luciferase (amino luciferin) is released, allowing the luciferase reaction to proceed and produce light. Luminescence is determined as relative light units (RLUs) using a GloMax-Multi Detection System: Luminometer (Promega, USA).

SMILES | effect on MG132-induced progerin clearance (co-treatment with MG132) [1] | progerin clearance / suppression of progerin accumulation compared with MG132 [1] | other results
CCC(=C/[C@H](C)C/C=C/C(C)=C/[C@@H](C)C(=O)[C@@H](C)[C@H](O)[C@@H](C)C/C(C)=C/C(=O)O)/C=C/[C@@H]1OC(=O)C=C[C@@H]1C [leptomycin B] | does not inhibit MG132 induced progerin clearance |  | 
CC(C)C[C@H](NC(=O)[C@H](CC(C)C)NC(=O)[C@H](CC(C)C)NC(=O)OCc1ccccc1)B(O)O [MG262, Z-Leu-Leu-Leu-B(OH)2] |  | less effective | 
CC(C)C[C@H](NC(=O)[C@H](Cc1ccccc1)NC(=O)c1cnccn1)B(O)O [bortezomib] |  | do not induce progerin clearance | 
CC[C@H](C)[C@H](NC(=O)[C@H](CCC(=O)OC)NC(=O)[C@@H](NC(=O)OCc1ccccc1)C(C)C)C(=O)N[C@@H](CC(=O)OC)C(=O)CF [caspase-6 inhibitor, Z-VEID-FMK] (Cbz-VE(OMe)ID(OMe)-CH2F) | progerin level remained below the HGPS control |  | 
COC(=O)C[C@H](NC(=O)[C@H](C)NC(=O)[C@@H](NC(=O)OCc1ccccc1)C(C)C)C(=O)CF [pan-caspase inhibitor, Z-VAD-FMK] (Cbz-Val-Ala-Asp(OMe)-CH2F) | increase of progerin that slightly reaches the control levels |  | SRSF-1 protein expression, added during MG132 treatment ([2]; HGPS cells, co-treatment with MG132): rescue of SRSF-1 protein expression
CO/C1=C\C(C)=C\[C@@H](C)[C@@H](O)[C@@H](C)C/C(C)=C/C=C/[C@H](OC)[C@@H]([C@@H](C)[C@@H](O)[C@H](C)[C@@]2(O)C[C@@H](O)[C@H](C)[C@@H](C(C)C)O2)OC1=O [bafilomycin A1] | partially inhibited the effect of MG132 |  | progerin expression levels, inhibitor alone [1]: reduced expression levels of progerin; three proteasome activities [3]: not modified; SRSF-1 levels, autophagy inhibitor alone [2]: decrease SRSF-1 levels
CCN(CC)CCCC(C)Nc1ccnc2cc(Cl)ccc12 (stereo not drawn) [chloroquine] |  |  | progerin expression levels, inhibitor alone [1]: reduced expression levels of progerin; three proteasome activities [3]: not modified; SRSF-1 levels, autophagy inhibitor alone [2]: decrease SRSF-1 levels
CC(C)C[C@H](NC(=O)[C@H](CCc1ccccc1)NC(=O)CN1CCOCC1)C(=O)N[C@@H](Cc1ccccc1)C(=O)N[C@@H](CC(C)C)C(=O)[C@@]1(C)CO1 [carfilzomib] |  | do not induce progerin clearance | 
CCC[C@@H](C=O)NC(=O)[C@H](CC(C)C)NC(=O)[C@H](CC(C)C)NC(=O)OCc1ccccc1 [MG115, Z-Leu-Leu-Nva-H] (Cbz-Leu-Leu-[Nva]-aldehyde) |  | the same efficacy in suppressing progerin accumulation | 
